{"source": "ChEMBL document CHEMBL3769377", "about": "“A synthesis, in silico, in vitro and in vivo study of thieno[2,3-b]pyridine anticancer analogues” (Medchemcomm, 2015)", "key": {"[1]": {"target": "Focal adhesion kinase 1 (Homo sapiens) (UniProt Q05397)", "assay": "Inhibition of human recombinant FAK assessed as residual activity at 10 uM after 1 hr by qPCR analysis relative to control"}, "[2]": {"target": "MAP/microtubule affinity-regulating kinase 3 (Homo sapiens) (UniProt P27448)", "assay": "Inhibition of human recombinant MARK3 assessed as residual activity at 10 uM after 1 hr by qPCR analysis relative to control"}, "[3]": {"target": "Serine/threonine-protein kinase PAK 4 (Homo sapiens) (UniProt O96013)", "assay": "Inhibition of human recombinant PAK4 assessed as residual activity at 10 uM after 1 hr by qPCR analysis relative to control"}, "786-0 [4]": {"test_system": "786-0", "assay": "Antitumor activity against human 786-0 cells xenografted in athymic nude/beige mouse assessed as reduction in tumor mass at 0.16 mg/kg, ip qd after 24 days", "assay_type": "functional, organism-based"}, "[5]": {"target": "Receptor-type tyrosine-protein kinase FLT3 (Homo sapiens) (UniProt P36888)", "assay": "Inhibition of human recombinant FLT3 assessed as residual activity at 10 uM after 1 hr by qPCR analysis relative to control"}, "[6]": {"target": "RAC-alpha serine/threonine-protein kinase (Homo sapiens) (UniProt P31749)", "sequence (P31749 whole entry)": "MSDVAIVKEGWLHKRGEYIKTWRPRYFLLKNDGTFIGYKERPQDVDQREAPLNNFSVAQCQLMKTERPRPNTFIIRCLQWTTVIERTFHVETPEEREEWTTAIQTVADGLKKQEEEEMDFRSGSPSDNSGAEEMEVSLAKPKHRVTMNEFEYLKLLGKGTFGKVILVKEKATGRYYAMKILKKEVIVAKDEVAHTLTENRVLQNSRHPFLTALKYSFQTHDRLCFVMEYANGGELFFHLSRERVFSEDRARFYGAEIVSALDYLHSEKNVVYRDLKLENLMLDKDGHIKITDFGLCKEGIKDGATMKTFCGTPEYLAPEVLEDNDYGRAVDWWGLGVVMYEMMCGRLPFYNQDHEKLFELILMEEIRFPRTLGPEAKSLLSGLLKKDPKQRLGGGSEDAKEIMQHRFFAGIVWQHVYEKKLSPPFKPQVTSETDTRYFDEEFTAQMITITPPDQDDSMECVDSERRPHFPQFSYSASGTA", "assay": "Inhibition of human recombinant AKT1 assessed as residual activity at 10 uM after 1 hr by qPCR analysis relative to control"}, "Mus musculus [7]": {"test_system": "Mus musculus", "assay": "Toxicity in athymic nude/beige mouse xenografted with human 786-O cells assessed as mild spasm at 0.16 mg/kg, ip qd after 24 days", "assay_type": "organism-based, 786-0", "details": "in vivo, 576 h"}, "[8]": {"target": "Serine/threonine-protein kinase PLK3 (Homo sapiens) (UniProt Q9H4B4)", "assay": "Inhibition of human recombinant PLK3 assessed as residual activity at 10 uM after 1 hr by qPCR analysis relative to control"}, "[9]": {"target": "Macrophage colony-stimulating factor 1 receptor (Homo sapiens) (UniProt P07333)", "assay": "Inhibition of human recombinant CSF1R assessed as residual activity at 10 uM after 1 hr by qPCR analysis relative to control"}, "[10]": {"target": "Epidermal growth factor receptor (Homo sapiens) (UniProt P00533)", "assay": "Inhibition of human recombinant EGFR assessed as residual activity at 10 uM after 1 hr by qPCR analysis relative to control"}, "786-0 [11]": {"test_system": "786-0", "assay": "Antitumor activity against human 786-0 cells xenografted in athymic nude/beige mouse assessed as tumor growth inhibition at 0.16 mg/kg, ip qd after 24 days", "assay_type": "functional, organism-based"}, "[12]": {"target": "Mitogen-activated protein kinase 9 (Homo sapiens) (UniProt P45984)", "assay": "Inhibition of human recombinant JNK2 assessed as residual activity at 10 uM after 1 hr by qPCR analysis relative to control"}, "[13]": {"target": "Cyclin-dependent kinase 2 (Homo sapiens) (UniProt P24941)", "assay": "Inhibition of human recombinant CDK2 assessed as residual activity at 10 uM after 1 hr by qPCR analysis relative to control"}, "[14]": {"target": "Activin receptor type-1B (Homo sapiens) (UniProt P36896)", "assay": "Inhibition of human recombinant ACVR1B assessed as residual activity at 10 uM after 1 hr by qPCR analysis relative to control"}, "[15]": {"target": "Phosphatidylinositol 4,5-bisphosphate 3-kinase catalytic subunit gamma isoform (Homo sapiens) (UniProt P48736)", "assay": "Inhibition of human recombinant PIK3CG assessed as residual activity at 10 uM after 1 hr by qPCR analysis relative to control"}, "[16]": {"target": "Tyrosine-protein kinase JAK3 (Homo sapiens) (UniProt P52333)", "assay": "Inhibition of human recombinant JAK3 (JH1 domain-catalytic) assessed as residual activity at 10 uM after 1 hr by qPCR analysis relative to control"}, "[17]": {"target": "Insulin-like growth factor 1 receptor (Homo sapiens) (UniProt P08069)", "assay": "Inhibition of human recombinant IGF1R assessed as residual activity at 10 uM after 1 hr by qPCR analysis relative to control"}, "[18]": {"target": "TGF-beta receptor type-1 (Homo sapiens) (UniProt P36897)", "assay": "Inhibition of human recombinant TGFBR1 assessed as residual activity at 10 uM after 1 hr by qPCR analysis relative to control"}, "[19]": {"target": "Glycogen synthase kinase-3 beta (Homo sapiens) (UniProt P49841)", "assay": "Inhibition of human recombinant GSK3B assessed as residual activity at 10 uM after 1 hr by qPCR analysis relative to control"}, "[20]": {"target": "Receptor tyrosine-protein kinase erbB-4 (Homo sapiens) (UniProt Q15303)", "assay": "Inhibition of human recombinant ERBB4 assessed as residual activity at 10 uM after 1 hr by qPCR analysis relative to control"}, "Mus musculus [21]": {"test_system": "Mus musculus", "assay": "Toxicity in athymic nude/beige mouse xenografted with human 786-O cells assessed as signs of facial hirsutism at 0.16 mg/kg, ip qd after 24 days", "assay_type": "organism-based, 786-0", "details": "in vivo, 576 h"}, "[22]": {"test_system": "Serine/threonine-protein kinase B-raf (Homo sapiens), P15056 [V600E]", "assay": "Inhibition of human recombinant BRAF V600E mutant assessed as residual activity at 10 uM after 1 hr by qPCR analysis relative to control"}, "[23]": {"target": "Non-receptor tyrosine-protein kinase TYK2 (Homo sapiens) (UniProt P29597)", "sequence (P29597 whole entry, the tested form may be a part)": "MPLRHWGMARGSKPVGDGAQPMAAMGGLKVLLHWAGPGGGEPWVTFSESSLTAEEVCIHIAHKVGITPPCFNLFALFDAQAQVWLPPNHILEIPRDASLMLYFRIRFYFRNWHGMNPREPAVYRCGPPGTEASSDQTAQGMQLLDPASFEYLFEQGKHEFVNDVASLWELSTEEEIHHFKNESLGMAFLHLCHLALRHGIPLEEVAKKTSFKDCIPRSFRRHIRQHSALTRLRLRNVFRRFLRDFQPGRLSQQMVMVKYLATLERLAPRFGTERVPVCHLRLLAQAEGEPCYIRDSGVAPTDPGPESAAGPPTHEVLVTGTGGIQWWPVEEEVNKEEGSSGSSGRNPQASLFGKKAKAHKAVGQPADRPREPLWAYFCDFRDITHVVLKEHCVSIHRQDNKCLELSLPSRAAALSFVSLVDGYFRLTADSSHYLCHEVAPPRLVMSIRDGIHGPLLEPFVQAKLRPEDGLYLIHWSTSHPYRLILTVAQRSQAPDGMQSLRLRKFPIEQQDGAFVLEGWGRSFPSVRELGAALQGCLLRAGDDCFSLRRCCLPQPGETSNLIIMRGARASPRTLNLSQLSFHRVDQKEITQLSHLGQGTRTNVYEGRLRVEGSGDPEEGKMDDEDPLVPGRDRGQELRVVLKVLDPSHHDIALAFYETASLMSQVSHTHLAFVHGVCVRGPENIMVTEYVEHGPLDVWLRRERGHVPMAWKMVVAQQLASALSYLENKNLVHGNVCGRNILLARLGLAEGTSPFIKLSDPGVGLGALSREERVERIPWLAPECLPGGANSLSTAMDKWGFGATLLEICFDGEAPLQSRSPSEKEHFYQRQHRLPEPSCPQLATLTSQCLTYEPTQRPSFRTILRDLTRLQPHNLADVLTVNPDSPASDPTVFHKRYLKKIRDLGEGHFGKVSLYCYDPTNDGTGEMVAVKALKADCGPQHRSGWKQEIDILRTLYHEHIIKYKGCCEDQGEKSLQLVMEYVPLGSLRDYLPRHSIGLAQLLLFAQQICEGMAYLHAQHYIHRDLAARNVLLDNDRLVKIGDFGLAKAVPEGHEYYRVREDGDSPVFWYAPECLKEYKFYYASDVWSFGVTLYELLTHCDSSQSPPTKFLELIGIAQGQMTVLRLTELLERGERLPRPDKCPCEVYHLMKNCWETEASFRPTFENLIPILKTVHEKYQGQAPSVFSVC", "assay": "Inhibition of human recombinant TYK2 (JH1 domain-catalytic) assessed as residual activity at 10 uM after 1 hr by qPCR analysis relative to control"}, "[24]": {"test_system": "Tyrosine-protein kinase ABL1 (Homo sapiens), P00519 [E255K]", "sequence (P00519 whole entry E255K)": "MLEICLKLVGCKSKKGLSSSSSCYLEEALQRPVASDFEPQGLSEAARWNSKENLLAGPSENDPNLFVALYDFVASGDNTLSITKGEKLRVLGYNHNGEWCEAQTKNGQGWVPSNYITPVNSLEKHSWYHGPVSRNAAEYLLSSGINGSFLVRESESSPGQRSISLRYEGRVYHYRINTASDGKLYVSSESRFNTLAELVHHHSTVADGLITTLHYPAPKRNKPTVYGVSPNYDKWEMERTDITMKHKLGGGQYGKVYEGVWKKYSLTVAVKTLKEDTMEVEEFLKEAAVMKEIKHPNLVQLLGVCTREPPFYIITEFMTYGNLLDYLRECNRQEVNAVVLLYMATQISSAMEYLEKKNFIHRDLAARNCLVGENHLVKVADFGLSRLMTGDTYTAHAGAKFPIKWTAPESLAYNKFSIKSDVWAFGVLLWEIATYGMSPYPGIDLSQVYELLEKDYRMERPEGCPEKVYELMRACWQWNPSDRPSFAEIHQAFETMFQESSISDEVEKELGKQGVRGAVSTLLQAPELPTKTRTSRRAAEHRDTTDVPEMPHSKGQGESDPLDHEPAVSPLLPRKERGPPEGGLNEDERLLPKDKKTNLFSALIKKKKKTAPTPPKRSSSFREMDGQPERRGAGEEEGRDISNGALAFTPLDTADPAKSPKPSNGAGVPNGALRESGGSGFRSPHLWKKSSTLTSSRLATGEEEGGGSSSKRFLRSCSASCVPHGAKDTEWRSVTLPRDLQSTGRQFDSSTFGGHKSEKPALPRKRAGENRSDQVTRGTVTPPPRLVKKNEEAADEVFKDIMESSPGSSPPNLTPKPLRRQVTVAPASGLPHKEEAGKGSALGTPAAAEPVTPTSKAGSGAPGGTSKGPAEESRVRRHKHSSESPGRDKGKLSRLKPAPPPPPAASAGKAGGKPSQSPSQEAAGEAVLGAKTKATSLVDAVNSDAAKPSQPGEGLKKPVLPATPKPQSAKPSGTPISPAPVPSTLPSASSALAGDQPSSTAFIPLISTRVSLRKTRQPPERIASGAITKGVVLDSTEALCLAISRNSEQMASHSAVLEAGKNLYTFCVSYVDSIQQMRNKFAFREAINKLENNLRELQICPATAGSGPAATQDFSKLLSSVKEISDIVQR", "assay": "Inhibition of human recombinant phosphorylated ABL1 E255K mutant assessed as residual activity at 10 uM after 1 hr by qPCR analysis relative to control"}, "[25]": {"target": "ALK tyrosine kinase receptor (Homo sapiens) (UniProt Q9UM73)", "assay": "Inhibition of human recombinant ALK assessed as residual activity at 10 uM after 1 hr by qPCR analysis relative to control"}, "[26]": {"target": "Serine/threonine-protein kinase Chk1 (Homo sapiens) (UniProt O14757)", "sequence (O14757 whole entry)": "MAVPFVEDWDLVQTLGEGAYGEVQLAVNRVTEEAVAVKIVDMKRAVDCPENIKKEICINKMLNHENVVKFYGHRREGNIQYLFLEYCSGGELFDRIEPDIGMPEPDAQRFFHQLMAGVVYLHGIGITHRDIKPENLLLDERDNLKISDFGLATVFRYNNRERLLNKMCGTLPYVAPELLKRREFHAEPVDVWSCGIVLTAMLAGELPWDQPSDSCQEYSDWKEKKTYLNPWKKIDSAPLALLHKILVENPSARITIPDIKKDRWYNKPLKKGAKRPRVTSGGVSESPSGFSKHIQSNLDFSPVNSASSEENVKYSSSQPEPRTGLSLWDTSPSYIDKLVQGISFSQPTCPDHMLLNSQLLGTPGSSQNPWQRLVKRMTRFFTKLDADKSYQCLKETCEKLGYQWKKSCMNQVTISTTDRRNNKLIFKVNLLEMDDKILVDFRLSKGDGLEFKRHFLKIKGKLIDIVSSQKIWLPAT", "assay": "Inhibition of human recombinant CHEK1 assessed as residual activity at 10 uM after 1 hr by qPCR analysis relative to control"}, "[27]": {"target": "Platelet-derived growth factor receptor alpha (Homo sapiens) (UniProt P16234)", "sequence (P16234 whole entry)": "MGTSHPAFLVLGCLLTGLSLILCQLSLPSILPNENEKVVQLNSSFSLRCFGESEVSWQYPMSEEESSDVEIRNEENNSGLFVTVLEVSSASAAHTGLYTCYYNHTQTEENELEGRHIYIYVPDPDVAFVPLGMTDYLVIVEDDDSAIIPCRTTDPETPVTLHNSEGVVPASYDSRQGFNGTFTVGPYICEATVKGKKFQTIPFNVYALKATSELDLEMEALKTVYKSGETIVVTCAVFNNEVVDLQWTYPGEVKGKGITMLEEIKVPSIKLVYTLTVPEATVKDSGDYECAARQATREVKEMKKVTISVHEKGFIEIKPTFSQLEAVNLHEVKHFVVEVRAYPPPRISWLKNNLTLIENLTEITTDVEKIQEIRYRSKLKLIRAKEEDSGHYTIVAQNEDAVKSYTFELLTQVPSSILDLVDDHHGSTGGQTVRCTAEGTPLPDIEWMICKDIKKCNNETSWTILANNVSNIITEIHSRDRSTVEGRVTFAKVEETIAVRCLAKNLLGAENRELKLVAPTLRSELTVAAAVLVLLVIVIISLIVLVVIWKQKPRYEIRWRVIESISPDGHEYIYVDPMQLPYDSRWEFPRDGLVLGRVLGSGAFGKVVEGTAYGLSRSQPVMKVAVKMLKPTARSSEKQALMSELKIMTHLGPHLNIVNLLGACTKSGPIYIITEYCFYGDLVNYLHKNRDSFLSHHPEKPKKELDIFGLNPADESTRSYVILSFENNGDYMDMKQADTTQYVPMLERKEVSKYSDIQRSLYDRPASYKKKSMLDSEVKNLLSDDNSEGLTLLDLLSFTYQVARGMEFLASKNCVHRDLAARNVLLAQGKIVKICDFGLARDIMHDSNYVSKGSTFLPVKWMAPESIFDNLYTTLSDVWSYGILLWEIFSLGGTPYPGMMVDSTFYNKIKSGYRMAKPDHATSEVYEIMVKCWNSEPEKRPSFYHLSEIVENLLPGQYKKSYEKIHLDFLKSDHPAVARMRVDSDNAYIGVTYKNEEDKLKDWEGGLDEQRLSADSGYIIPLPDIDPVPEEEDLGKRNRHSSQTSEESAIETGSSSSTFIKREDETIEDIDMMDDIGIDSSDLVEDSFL", "assay": "Inhibition of human recombinant PDGFRA assessed as residual activity at 10 uM after 1 hr by qPCR analysis relative to control"}, "[28]": {"target": "Serine/threonine-protein kinase STK11 (Homo sapiens) (UniProt Q15831)", "assay": "Inhibition of human recombinant LKB1 assessed as residual activity at 10 uM after 1 hr by qPCR analysis relative to control"}, "[29]": {"target": "Tyrosine-protein kinase receptor UFO (Homo sapiens) (UniProt P30530)", "assay": "Inhibition of human recombinant AXL assessed as residual activity at 10 uM after 1 hr by qPCR analysis relative to control"}, "[30]": {"target": "Fibroblast growth factor receptor 3 (Homo sapiens) (UniProt P22607)", "assay": "Inhibition of human recombinant FGFR3 assessed as residual activity at 10 uM after 1 hr by qPCR analysis relative to control"}, "[31]": {"target": "SRSF protein kinase 3 (Homo sapiens) (UniProt Q9UPE1)", "sequence (Q9UPE1 whole entry)": "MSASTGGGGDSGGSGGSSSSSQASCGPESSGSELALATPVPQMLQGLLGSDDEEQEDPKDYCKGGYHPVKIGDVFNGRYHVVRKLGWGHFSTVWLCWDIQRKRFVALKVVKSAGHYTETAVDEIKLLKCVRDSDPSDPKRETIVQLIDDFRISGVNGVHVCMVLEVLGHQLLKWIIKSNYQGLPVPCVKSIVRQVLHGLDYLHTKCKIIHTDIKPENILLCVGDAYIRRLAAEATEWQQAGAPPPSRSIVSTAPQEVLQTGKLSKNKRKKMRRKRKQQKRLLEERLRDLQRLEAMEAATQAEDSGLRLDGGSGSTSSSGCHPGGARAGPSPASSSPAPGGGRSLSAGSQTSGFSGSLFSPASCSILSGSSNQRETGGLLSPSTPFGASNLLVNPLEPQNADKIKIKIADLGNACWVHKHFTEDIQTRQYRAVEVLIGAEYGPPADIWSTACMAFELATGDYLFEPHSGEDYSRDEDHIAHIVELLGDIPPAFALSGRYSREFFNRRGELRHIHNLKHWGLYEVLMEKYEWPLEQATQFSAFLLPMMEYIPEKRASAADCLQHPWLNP", "assay": "Inhibition of human recombinant SRPK3 assessed as residual activity at 10 uM after 1 hr by qPCR analysis relative to control"}}, "note": "Active and inactive are the calls of the source. The rule behind the calls is not given here."}
{"compound": "Cc1c(Cl)cccc1NC(=O)c1sc2nc3c(cc2c1N)C(=O)CC3", "values": [{"measurement": "Activity", "setting": "[1]", "value": 100, "unit": "%"}, {"measurement": "Activity", "setting": "[2]", "value": 96, "unit": "%"}, {"measurement": "Activity", "setting": "[3]", "value": 85, "unit": "%"}, {"measurement": "Activity", "setting": "786-0 [4]", "value": "Active"}, {"measurement": "Activity", "setting": "[5]", "value": 100, "unit": "%"}, {"measurement": "Activity", "setting": "[6]", "value": 90, "unit": "%"}, {"measurement": "Activity", "setting": "Mus musculus [7]", "value": "Toxic"}, {"measurement": "Activity", "setting": "[8]", "value": 100, "unit": "%"}, {"measurement": "Activity", "setting": "[9]", "value": 100, "unit": "%"}, {"measurement": "Activity", "setting": "[10]", "value": 100, "unit": "%"}, {"measurement": "TGI", "setting": "786-0 [11]", "value": "Active"}, {"measurement": "Activity", "setting": "[12]", "value": 93, "unit": "%"}, {"measurement": "Activity", "setting": "[13]", "value": 100, "unit": "%"}, {"measurement": "Activity", "setting": "[14]", "value": 100, "unit": "%"}, {"measurement": "Activity", "setting": "[15]", "value": 100, "unit": "%"}, {"measurement": "Activity", "setting": "[16]", "value": 100, "unit": "%"}, {"measurement": "Activity", "setting": "[17]", "value": 97, "unit": "%"}, {"measurement": "Activity", "setting": "[18]", "value": 100, "unit": "%"}, {"measurement": "Activity", "setting": "[19]", "value": 92, "unit": "%"}, {"measurement": "Activity", "setting": "[20]", "value": 100, "unit": "%"}, {"measurement": "Activity", "setting": "Mus musculus [21]", "value": "Toxic"}, {"measurement": "Activity", "setting": "[22]", "value": 90, "unit": "%"}, {"measurement": "Activity", "setting": "[23]", "value": 94, "unit": "%"}, {"measurement": "Activity", "setting": "[24]", "value": 100, "unit": "%"}, {"measurement": "Activity", "setting": "[25]", "value": 100, "unit": "%"}, {"measurement": "Activity", "setting": "[26]", "value": 94, "unit": "%"}, {"measurement": "Activity", "setting": "[27]", "value": 100, "unit": "%"}, {"measurement": "Activity", "setting": "[28]", "value": 76, "unit": "%"}, {"measurement": "Activity", "setting": "[29]", "value": 100, "unit": "%"}, {"measurement": "Activity", "setting": "[30]", "value": 100, "unit": "%"}, {"measurement": "Activity", "setting": "[31]", "value": 100, "unit": "%"}]}
